The record followed here is patent US20250154110A1, “CLAUDIN INHIBITORS AND METHODS OF USE THEREOF” (The University of Chicago, priority 2021, published 2025).

For experiment [1], the target named is T1, claudin-15 (Homo sapiens, UniProt P56746).
T1 construct: expressed in transfected cells; host or cells: Madin-Darby Canine Kidney (MDCK) I cells, doxycycline-induced expression
T1 sequence (P56746 1-228): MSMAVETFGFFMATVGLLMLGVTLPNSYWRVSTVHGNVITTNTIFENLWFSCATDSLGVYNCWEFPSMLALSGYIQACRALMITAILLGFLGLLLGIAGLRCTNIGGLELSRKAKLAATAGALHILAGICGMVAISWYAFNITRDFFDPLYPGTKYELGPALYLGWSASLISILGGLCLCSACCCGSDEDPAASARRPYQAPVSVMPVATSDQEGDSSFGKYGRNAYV
Description: TER across MDCK I monolayers induced to express claudin-15. The class given is cell-based. Conditions: FIG. 20; concentrations lower than 100 μM; resistance normalized to vehicle. The source says: Electrical measures are used to assess the flow of ions through the claudin channels. The most commonly used measurement in the tight junction field is transepithelial electrical resistance (TER). These assays can be performed using epithelial cells grown on permeable supports (in vitro) or using intact tissue from the GI tract mounted across apertures (ex vivo).
Two different Madin-Darby Canine Kidney (MDCK) I cell lines were used, which respectively express either claudin-2 or -15 when grown in the presence of doxycycline. These cells are useful in assessing the specificity of molecule effects on claudin-2 versus claudin-15. Caco-2 BBe epithelial cells, which normally express claudin-2 and some claudin-15, were also used to better understand the utility of these molecules in blocking claudins in the gastrointestinal (GI) tract. Caco-2 BBe and MDCK cells were grown on 0.33 cm^2 polycarbonate semi-permeable membranes with 0.4 μm pores (Corning Life Sciences, Corning, NY) and used 4 days (MDCK) or 3 weeks (Caco-2 BBe) after plating. […]
Molecules were solubilized in vehicle (dimethylsulfoxide (DMSO)) and applied to both sides of the epithelial monolayer after first measuring TER at t=0 (FIGS. 17 and 18). […] Readings were performed for at least 3 hours after application to rule out epithelial cell injury, which would reduce TER. […]

The test system of experiment [2] is mouse mucosa. Nature of the experiment: TER of mouse duodenum mucosa mounted in Ussing chambers. Particulars: FIG. 22, 100 μM added bilaterally, versus vehicle, P<0.01. From the text:
The same techniques to measure TER and ion selectivity also apply to intact mucosa isolated from mice. The only significant difference is the tissue was first stripped of its muscularis propria and mounted in chambers, known as Ussing chambers. The same techniques were used to measure ion selectivity. Identical solutions were used, but also bubbled with 100% oxygen.
For TER measurements, duodenum segments were stripped of muscularis propria and mounted in Ussing chambers, and equilibrated in oxygenated HBSS for 15 min at 37° C. Vehicle control solution (DMSO) or the same solution containing 100 μM NSC 67736 were then added bilaterally. TER was recorded using current clamp pulses from 0 to 10 μA and Vrev was recorded by clamping current to 0. Electrode bridges were made 3% agarose KCl.

Experiment [3] has as its system colonoids derived from a patient with inflammatory bowel disease. Nature of the experiment: Organoid shrinking assay in colonoids after Na+ to NMDG+ buffer exchange. Particulars: FIG. 25. Format: cell-based, human. The source says:
For this study, organoids derived from human colon biopsies (colonoids) were first equilibrated in steady-state with Na^+ as the predominant extracellular cation. Extraluminal Na^+ was then replaced with N-methyl-D-glucamine (NMDG^+) by buffer exchange. The buffer exchange generates a large concentration gradient for Na^+ to diffuse out of the organoid lumen. […] See, for example, FIG. 24. As a result, the net Na^+ flux across tight junctions creates an osmotic gradient for water to exit the organoid through tight junctions, causing organoids to shrink. The size of organoids is measured by time-lapse microscopy, and the rate and extent of shrinkage can be determined as an assay of claudin permeability. Reduced rate and extent of shrinkage indicates reduced permeability.
Colonoids derived from a patient with inflammatory bowel disease were first equilibrated in steady-state with Na^+ containing media. Equilibrated colonoids were treated with NSC 73446 or a vehicle control and the extraluminal Na^+ was then replaced with N-methyl-D-glucamine (NMDG^+) by buffer exchange. As is apparent from the results set forth in FIG. 25, water transport across human epithelium was modulated by NSC 73446.

Consider `O=C(Nc1cccc(C(=O)Nc2cc(C3=NCCN3)cc(C3=NCCN3)c2)c1)Nc1cccc(C(=O)Nc2cc(C3=NCCN3)cc(C3=NCCN3)c2)c1` [NSC 53299], for which, in experiment [1], the “dose response of TER” value is “effective at low micromolar concentrations”.

Take `Cl.Cl.O=C(Nc1ccc(C(=O)Nc2ccc(C3=NCCCN3)cc2)cc1)Nc1ccc(C2=NCCCN2)cc1` [NSC 67736]: the “change in TER (barrier function) in mouse mucosa” value in experiment [2] is reported as “increases barrier function”.

As to `CCCNC(=O)c1cc(NC(=O)Nc2ccc(C3=NCCCN3)cc2)cc(NC(=O)Nc2ccc(C3=NCCCN3)cc2)c1.Cl` [NSC 73446], in experiment [3] (inferred from colonoid size change), the “water transport across human epithelium” value is “reduces water transport out of the lumen of the colonoid”. Moreover, in experiment [3] (time-lapse microscopy, relative to vehicle control), the “colonoid size change (rate and extent of shrinkage)” value is “minimizes the rate and extent of colonoid size decrease”.
